# From ChEMBL document CHEMBL1140121, “X-ray crystal structure of human heme oxygenase-1 in complex with 1-(adamantan-1-yl)-2-(1H-imidazol-1-yl)ethanone: a common binding mode for imidazole-based heme oxygenase-1 inhibitors” (J Med Chem, 2008)
# Assays:
# [1] = biological target: T1, Heme oxygenase 1 (Homo sapiens) (UniProt P09601); assay: Residual activity of human recombinant HO1 expressed in Escherichia coli DH5alpha assessed as remaining heme at 25 uM by spectrophotometry in absence of L-ascorbic acid relative to control
# T1 sequence (whole entry): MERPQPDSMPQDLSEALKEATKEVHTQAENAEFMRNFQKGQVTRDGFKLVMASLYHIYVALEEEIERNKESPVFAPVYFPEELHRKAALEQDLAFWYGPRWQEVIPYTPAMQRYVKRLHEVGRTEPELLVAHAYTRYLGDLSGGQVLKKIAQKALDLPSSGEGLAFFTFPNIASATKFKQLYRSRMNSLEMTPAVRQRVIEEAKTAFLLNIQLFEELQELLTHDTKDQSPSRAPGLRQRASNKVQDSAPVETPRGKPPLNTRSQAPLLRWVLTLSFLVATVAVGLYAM
# [2] = biological target: T1, Heme oxygenase 1 (Homo sapiens); assay: Residual activity of human recombinant HO1 expressed in Escherichia coli DH5alpha assessed as remaining heme at 50 uM by spectrophotometry in absence of L-ascorbic acid relative to control
# [3] = biological target: T1, Heme oxygenase 1 (Homo sapiens); assay: Inhibition of human recombinant HO1 expressed in Escherichia coli DH5alpha assessed as heme degradation at 25 uM by spectrophotometry in presence of L-ascorbic acid relative to control; parameters: scale not given: the % may be the effect or the level left
# [4] = biological target: T1, Heme oxygenase 1 (Homo sapiens); assay: Inhibition of human recombinant HO1 expressed in Escherichia coli DH5alpha assessed as heme degradation at 10 uM by spectrophotometry in presence of L-ascorbic acid relative to control
SMILES,residual activity [1] [%],residual activity [2] [%],Activity [3] [%],inhibition [4] [%]
O=C(Cn1ccnc1)C12CC3CC(CC(C3)C1)C2,44,54,,
Clc1ccc(CCC2(Cn3ccnc3)OCCO2)cc1,65,80,15,39
